Experimental data: patent US10758534B2 (Vertex Pharmaceuticals Incorporated, priority 2014, dated 2020)

Target: T1, F508del (Homo sapiens, UniProt P13569, DEL508-508)
T1 construct: expressed in transfected cells
Experiment: Protocol 2: FRET membrane potential optical assay (VIPR), identification of correction compounds
Type: cell-based
Conditions: Table 3; compounds of Table 1 as modulators of CFTR activity; protocol not stated
Procedure, shortened: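 Correction of the F508del trafficking defect is scored as forskolin (10 μM)/genistein (20 μM)-stimulated Cl^− efflux in NIH3T3 mouse fibroblasts after a 16 hr, 37° C. compound exposure. Depolarization was followed optically using voltage-sensing FRET dyes.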

T1 sequence (P13569 with tags, fused parts or gaps DEL508-508): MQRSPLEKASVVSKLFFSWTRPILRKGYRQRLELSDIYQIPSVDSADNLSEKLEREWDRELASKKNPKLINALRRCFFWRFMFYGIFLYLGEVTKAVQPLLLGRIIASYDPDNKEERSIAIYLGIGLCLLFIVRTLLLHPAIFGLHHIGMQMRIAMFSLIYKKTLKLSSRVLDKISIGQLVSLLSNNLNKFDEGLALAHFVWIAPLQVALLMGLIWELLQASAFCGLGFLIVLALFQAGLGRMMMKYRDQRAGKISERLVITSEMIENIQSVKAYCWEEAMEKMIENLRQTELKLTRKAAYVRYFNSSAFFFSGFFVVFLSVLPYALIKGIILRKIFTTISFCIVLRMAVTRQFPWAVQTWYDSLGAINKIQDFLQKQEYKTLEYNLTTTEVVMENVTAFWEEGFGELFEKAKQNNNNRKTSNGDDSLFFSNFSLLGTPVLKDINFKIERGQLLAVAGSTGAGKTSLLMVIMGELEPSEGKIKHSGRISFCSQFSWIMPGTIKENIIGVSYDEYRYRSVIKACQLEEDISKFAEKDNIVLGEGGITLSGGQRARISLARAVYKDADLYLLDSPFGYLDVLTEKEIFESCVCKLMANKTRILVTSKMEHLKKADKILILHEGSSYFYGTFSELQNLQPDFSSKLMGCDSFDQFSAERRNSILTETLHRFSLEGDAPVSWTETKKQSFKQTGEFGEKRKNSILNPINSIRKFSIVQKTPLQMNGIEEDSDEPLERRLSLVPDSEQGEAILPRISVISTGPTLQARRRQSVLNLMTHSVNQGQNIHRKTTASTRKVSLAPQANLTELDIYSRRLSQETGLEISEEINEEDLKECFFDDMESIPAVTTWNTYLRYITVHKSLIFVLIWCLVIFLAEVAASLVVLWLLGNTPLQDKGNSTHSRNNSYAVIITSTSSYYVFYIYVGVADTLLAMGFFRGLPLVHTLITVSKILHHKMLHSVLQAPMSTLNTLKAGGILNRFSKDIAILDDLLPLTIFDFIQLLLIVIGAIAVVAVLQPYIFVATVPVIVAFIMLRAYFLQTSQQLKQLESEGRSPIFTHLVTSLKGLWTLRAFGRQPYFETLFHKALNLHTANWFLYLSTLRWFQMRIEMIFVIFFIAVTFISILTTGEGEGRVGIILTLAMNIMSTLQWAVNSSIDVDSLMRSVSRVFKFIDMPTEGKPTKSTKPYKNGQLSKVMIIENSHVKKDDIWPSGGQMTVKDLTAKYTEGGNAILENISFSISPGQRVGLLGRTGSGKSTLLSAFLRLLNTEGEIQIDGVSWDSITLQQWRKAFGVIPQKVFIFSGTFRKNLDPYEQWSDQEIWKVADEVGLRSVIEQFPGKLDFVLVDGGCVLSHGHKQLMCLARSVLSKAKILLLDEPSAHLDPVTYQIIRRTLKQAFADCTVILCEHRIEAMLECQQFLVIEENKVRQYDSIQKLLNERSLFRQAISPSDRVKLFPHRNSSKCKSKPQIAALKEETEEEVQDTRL

Structure (SMILES)	EC30
Cc1cc(C)c(Oc2nc(CCc3ccccc3)ccc2C(=O)NS(=O)(=O)c2cccc(N)n2)c(C)c1 [Compound 268, N-[(6-amino-2-pyridyl)sulfonyl]-6-phenethyl-2-(2,4,6-trimethylphenoxy)pyridine-3-carboxamide]	+++ (“+++” means <3 uM)
Cc1cc(C)c(Cn2nc(C(C)(C)C)cc2C(=O)NS(=O)(=O)c2ccc(O)cc2)c(C)c1 [Compound 269, 5-tert-butyl-N-(4-hydroxyphenyl)sulfonyl-2-[(2,4,6-trimethylphenyl)methyl]pyrazole-3-carboxamide]	+++ (“+++” means <3 uM)
Cc1cc(C)c(Cn2nc(C(C)(C)C)cc2C(=O)NS(=O)(=O)c2cccc(N(C)C)c2)c(C)c1 [Compound 270, 5-tert-butyl-N-[3-(dimethylamino)phenyl]sulfonyl-2-[(2,4,6-trimethylphenyl)methyl]pyrazole-3-carboxamide]	+++ (“+++” means <3 uM)
CC(c1ccccc1)c1nc(C(C)(C)C)ccc1C(=O)NS(=O)(=O)c1cccc(N)c1 (stereo not shown) [Compound 271, N-(3-aminophenyl)sulfonyl-6-tert-butyl-2-(1-phenylethyl)pyridine-3-carboxamide]	+++ (“+++” means <3 uM)
CC(C)(C)c1ccc(C(=O)NS(=O)(=O)c2cccc(N)c2)c(Oc2ccccc2)n1 [Compound 272, N-(3-aminophenyl)sulfonyl-6-tert-butyl-2-phenoxy-pyridine-3-carboxamide]	++ (“++” means between 3 uM and 10 uM)
Cc1ccc(-c2nc(C(C)(C)C)ccc2C(=O)NS(=O)(=O)c2cccc(N)c2)cc1C [Compound 274, N-(3-aminophenyl)sulfonyl-6-tert-butyl-2-(3,4-dimethylphenyl)pyridine-3-carboxamide]	+++ (“+++” means <3 uM)
Cc1c(Cn2nc(C(C)(C)C)cc2C(=O)NS(=O)(=O)c2cccc3ccn(C)c23)cccc1C(F)(F)F [Compound 276, 5-tert-butyl-N-(1-methylindol-7-yl)sulfonyl-2-[[2-methyl-3-(trifluoromethyl)phenyl]methyl]pyrazole-3-carboxamide]	+++ (“+++” means <3 uM)
Cc1cccc(C)c1Cn1nc(-c2ccccc2OC(C)C)cc1C(=O)NS(=O)(=O)c1ccccc1 [Compound 277, N-(benzenesulfonyl)-2-[(2,6-dimethylphenyl)methyl]-5-(2-isopropoxyphenyl)pyrazole-3-carboxamide]	+++ (“+++” means <3 uM)
Cc1cc(C)c(Oc2nc(-c3cc(OCC(C)C)ccc3F)ccc2C(=O)NS(=O)(=O)c2ccc[nH]c2=O)c(C)c1 [Compound 279, 6-(2-fluoro-5-isobutoxy-phenyl)-N-[(2-oxo-1H-pyridin-3-yl)sulfonyl]-2-(2,4,6-trimethylphenoxy)pyridine-3-carboxamide]	+++ (“+++” means <3 uM)

Other lines, results leading:

EC30	Structure (SMILES)
+++ (“+++” means <3 uM)	Cc1cc(C)c(Oc2nc(NC(C)(C)C)ccc2C(=O)NS(=O)(=O)c2cccc(N)n2)c(C)c1 [Compound 273, N-[(6-Amino-2-pyridyl)sulfonyl]-6-(tert-butylamino)-2-(2,4,6-trimethylphenoxy)pyridine-3-carboxamide]
+++ (“+++” means <3 uM)	Cc1cc(C)c(Oc2nc(C(C)(C)C)ccc2C(=O)NS(=O)(=O)c2cccc3[nH]ccc23)c(C)c1 [Compound 275, 6-tert-butyl-N-(1H-indol-4-ylsulfonyl)-2-(2,4,6-trimethylphenoxy)pyridine-3-carboxamide]
++ (“++” means between 3 uM and 10 uM)	Cc1cc(C)c(Cn2nc(OC(C)c3ccccc3)cc2C(=O)NS(=O)(=O)c2cccc(N)c2)c(C)c1 (stereo not shown) [Compound 278, N-(3-aminophenyl)sulfonyl-5-(1-phenylethoxy)-2-[(2,4,6-trimethylphenyl)methyl]pyrazole-3-carboxamide]
+++ (“+++” means <3 uM)	CCOc1cccc(-c2cc(C(=O)NS(=O)(=O)c3ccccc3)n(Cc3c(C)cccc3C)n2)c1 [Compound 280, N-(benzenesulfonyl)-2-[(2,6-dimethylphenyl)methyl]-5-(3-ethoxyphenyl)pyrazole-3-carboxamide]
